Where a name gives a salt, the structure may show the parent alone. Read-outs that look alike come from different tables or passages of the source.
What was measured:
human ROCK1 = human ROCK1 (Homo sapiens, UniProt Q13464); assay: ROCK1 enzymatic test (LANCE, phosphorylation of Ulight-RRRSLLE (PLK) substrate); assay type: biochemical; details: human recombinant enzyme, 1 μM ATP, 50 nM Ulight-RRRSLLE (PLK) substrate, 30 minutes at ambient temperature; read-out: ROCK1(h), IC50
Method: Evaluation of the effects of compounds on human ROCK1 activity quantified by measuring the phosphorylation of the substrate Ulight-RRRSLLE (PLK) using a human recombinant enzyme and the LANCE® detection method.
The test compound, the reference compound or water (control) is mixed with the enzyme (8.2 ng) in a buffer comprising 40 mM Hepes/Tris (pH 7.4), 0.8 mM EGTA/Tris, 8 mM MgCl2, 1.6 mM DTT and 0.008% Tween 20.
The reaction is then started by adding 50 nM of Ulight-RRRSLLE (PLK) substrate and 1 μM of ATP, and the mixture is incubated for 30 minutes at ambient temperature. For the basal control measurements, the enzyme is excluded from the reaction mixture.
After the incubation, the reaction is stopped by adding 13 mM of EDTA. After 5 minutes, the anti-phospho-PLK antibody labelled with europium chelate is added. After a further 60 minutes, the fluorescence transfer is measured at lex=337 nm, lem=620 nm and lem=665 nm using a microplate reader (Envision, Perkin Elmer). The enzymatic activity is determined by dividing the signal measured at 665 nm by that measured at 620 nm (ratio). The results are expressed in the form of a percentage inhibition of the control enzymatic activity. The standard reference inhibition compound is staurosporine, which is tested in each experiment at several concentrations in order to obtain an inhibition curve on the basis of which the value of the IC50 (concentration that induces 50% inhibition) is calculated.

[1] = tested on: aortic segments of the rat (contraction induced by PHE); assay: Functional test (rat aorta): vascular reactivity on aortic rings without endothelium contracted with phenylephrine; details: aortic rings without endothelium contracted with PHE 10^-6 M, read-out: Relaxation (rat aorta + PHE), IC50
Excerpt: Functional Test (Rat Aorta) Study of Vascular Reactivity on Aortic Segments of the Rat. After anaesthesia of the animal, the thoracic aorta is removed and immediately placed in a physiological saline solution (PSS). The proximal thoracic aorta is cleaned of adherent conjunctive tissue and 4 aortic rings (3-4 mm) are cut. The endothelium is removed mechanically without damaging the smooth muscle cells. The rings without endothelium are placed in PSS medium in isolated organ baths maintained at 37° C. in the presence of carbogen. The isometric tension of the rings is recorded by means of a force sensor. At their optimum tension, the rings are subjected to an equilibration period during which the physiological medium is replaced regularly. The preparations are then contracted twice by means of a hyperpotassic solution (KCl 60 mM), each of the 2 contractions being followed by successive washings in order to return to the original tension. The absence of endothelium is verified after contraction by an al-adrenergic receptor agonist, phenylephrine (PHE, 10^−6M), followed by the addition of carbachol (10^−5M), a muscarinic receptor agonist, which induces a relaxation only in the presence of endothelium. The rings are then washed regularly with PSS for 60 minutes in order to remove the pharmacological agents. The rings are recontracted with PHE (10^−6M) and then, after stabilisation of the contraction, the product or its solvent is added in cumulative concentrations, 5 concentrations are tested: 10M^−8, 10^−7M, 10^−6M, 10M^−5 and 3×10^−5M (if the product is dissolved in DMSO) or 10^−4M (if H2O is the solvent of the product). The contractile response is obtained in milligrams (mg). The results are expressed by the mean±SEM of the contractile responses obtained on at least 2 rats. The variations in tension of each product are calculated as a percentage of the maximum contraction induced by PHE before the product is added, according to the formula: % contraction B(t)=[×(mg) tension(compound)B(t)/y (mg) maximum tension (PHE)B]×100. The concentration-response curves obtained are analysed and allow the IC50 value of each product to be determined (IC50: concentration of product necessary to inhibit 50% of the maximum contraction induced by PHE), the estimation of the IC50 value of the concentration-response curves being obtained by non-linear regression.

[2] = tested on: arterial pressure of spontaneously hypertensive rats (SHR); assay: Evaluation on the arterial pressure in spontaneously hypertensive rats (SHR), telemetry; assay type: in vivo; details: SHR rat, maximum change of arterial pressure relative to basal
Method: The effect of the ROCK inhibitors was tested by the reduction of the arterial pressure (AP) that they induce in spontaneously hypertensive rats (SHR) after intravenous (i.v.) and/or oral administration. In summary, the SHRs were anaesthetised with 2% isoflurane, and a telemetry probe (PAC40, Data Science International) was implanted in the abdominal aorta to record the AP and a polyethylene catheter was implanted in the jugular vein for the i.v. administration. After recovery from the surgery (2 to 3 weeks), the AP was recorded continuously for 24 hours after administration of the ROCK inhibitors at doses of 1, 3, 10 and 30 mg/kg by the i.v. route and/or by the oral route. The effect on the AP was expressed as the percentage reduction relative to the basal arterial pressure before administration of the product.

[3] = IV 3 mg/kg, read-out: SHR rat ΔAP % max, IV 3 mg/kg
[4] = PO 3 mg/kg, read-out: SHR rat ΔAP % max, PO 3 mg/kg

human ROCK1, sequence (Q13464 whole entry): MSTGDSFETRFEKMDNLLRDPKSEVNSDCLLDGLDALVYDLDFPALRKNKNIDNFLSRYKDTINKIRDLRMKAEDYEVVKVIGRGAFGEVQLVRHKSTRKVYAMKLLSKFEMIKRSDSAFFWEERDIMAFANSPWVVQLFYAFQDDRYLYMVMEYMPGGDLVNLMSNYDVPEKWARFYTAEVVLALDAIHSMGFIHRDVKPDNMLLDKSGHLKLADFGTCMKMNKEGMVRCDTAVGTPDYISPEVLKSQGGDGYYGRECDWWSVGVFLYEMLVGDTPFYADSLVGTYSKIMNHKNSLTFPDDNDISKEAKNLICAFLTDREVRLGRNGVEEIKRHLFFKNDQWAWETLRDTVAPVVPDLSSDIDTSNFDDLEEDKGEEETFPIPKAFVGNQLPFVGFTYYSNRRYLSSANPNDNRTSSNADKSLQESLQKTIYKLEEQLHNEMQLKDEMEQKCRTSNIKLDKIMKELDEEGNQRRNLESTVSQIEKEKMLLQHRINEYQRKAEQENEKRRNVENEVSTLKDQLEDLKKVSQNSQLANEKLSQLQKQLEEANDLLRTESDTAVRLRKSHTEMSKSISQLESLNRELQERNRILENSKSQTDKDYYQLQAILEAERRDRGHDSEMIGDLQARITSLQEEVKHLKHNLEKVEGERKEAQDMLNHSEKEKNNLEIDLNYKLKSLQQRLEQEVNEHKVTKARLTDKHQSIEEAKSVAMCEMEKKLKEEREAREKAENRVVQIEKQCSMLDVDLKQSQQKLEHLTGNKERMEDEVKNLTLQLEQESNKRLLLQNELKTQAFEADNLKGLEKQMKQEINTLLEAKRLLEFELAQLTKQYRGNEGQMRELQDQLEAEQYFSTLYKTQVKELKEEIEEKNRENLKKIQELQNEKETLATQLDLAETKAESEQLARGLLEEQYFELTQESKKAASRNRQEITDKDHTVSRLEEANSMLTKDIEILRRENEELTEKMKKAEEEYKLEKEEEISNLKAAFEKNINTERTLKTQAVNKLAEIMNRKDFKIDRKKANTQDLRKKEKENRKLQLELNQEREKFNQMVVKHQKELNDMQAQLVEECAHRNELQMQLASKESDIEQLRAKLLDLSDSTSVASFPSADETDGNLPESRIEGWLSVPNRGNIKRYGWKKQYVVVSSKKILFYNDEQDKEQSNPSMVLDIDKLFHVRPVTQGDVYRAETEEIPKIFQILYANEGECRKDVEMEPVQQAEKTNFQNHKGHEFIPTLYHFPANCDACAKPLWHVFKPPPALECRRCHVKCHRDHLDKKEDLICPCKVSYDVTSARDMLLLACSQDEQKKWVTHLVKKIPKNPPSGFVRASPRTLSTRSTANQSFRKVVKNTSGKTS

Compound	IC50 (human ROCK1) [nM]	IC50 [1] [nM]	change in vivo at 3 mg/kg [2, 3] [%]	change in vivo at 3 mg/kg [2, 4] [%]
CC(C)(N)c1cc(F)c(C(=O)c2cccc3c(=O)[nH]ccc23)c(F)c1 [Product P27, 5-[4-(2-Aminopropan-2-yl)-2,6-difluorobenzoyl]isoquinolin-1(2H)-one hydrochloride]	8.7	50	-69	-54
C[C@@H](N)c1ccc(F)c(C(=O)c2cccc3c(=O)[nH]ccc23)c1F [Product P56, 5-{3-[(1R)-1-Aminoethyl]-2,6-difluorobenzoyl}isoquinolin-1(2H)-one hydrochloride]	16.5	150	-54.7	–
CC(N)c1cc(F)c(Cc2cccc3cnccc23)c(F)c1 (stereo not drawn) [Product P19, 1-[3,5-Difluoro-4-(isoquinolin-5-ylmethyl)phenyl]ethanamine dihydrochloride]	63	230	-39.6	–
C[C@@H](N)c1cc(F)c(C(=O)c2cccc3cnccc23)c(F)c1 [Product P9, {4-[(1R)-1-Aminoethyl]-2,6-difluorophenyl}(isoquinolin-5-yl)methanone dihydrochloride]	5.87	33	-67	-53.7
NC1CCc2c1cc(F)c(C(=O)c1cccc3c(=O)[nH]ccc13)c2F (stereo not drawn) [Product P58, 5-[(1-Amino-4,6-difluoro-2,3-dihydro-1H-inden-5-yl)carbonyl]isoquinolin-1(2H)-one hydrochloride]	3.85	70	-65.1	-52.7
CC(NCCO)c1cc(F)c(C(=O)c2cccc3c(=O)[nH]ccc23)c(F)c1 (stereo not drawn) [Product P48, 5-(2,6-Difluoro-4-{1-[(2-hydroxyethyl)amino]ethyl}benzoyl)isoquinolin-1(2H)-one hydrochloride]	7.45	150	-67.3	-29.2
CC(N)c1cc(F)c(C(=O)c2cccc3cnccc23)c(F)c1 (stereo not drawn) [Product P6, [4-(1-Aminoethyl)-2,6-difluorophenyl](isoquinolin-5-yl)methanone dihydrochloride]	–	200	-73.4	-35.6
COc1c(C(C)N)ccc(C(=O)c2cccc3c(=O)[nH]ccc23)c1F (stereo not drawn) [Product P42, 5-[4-(1-Aminoethyl)-2-fluoro-3-methoxybenzoyl]isoquinolin-1(2H)-one hydrochloride]	9.6	200	-59.9	-12.3
O=C(c1c(F)cc(C2CCCCN2)cc1F)c1cccc2c(=O)[nH]ccc12 (stereo not drawn) [Product P75, 5-[2,6-Difluoro-4-(piperidin-2-yl)benzoyl]isoquinolin-1(2H)-one hydrochloride]	10.4	200	-49.8	-12.4
CC(N)c1cc(F)c(C(=O)c2cccc3c(O)nccc23)c(F)c1 (stereo not drawn) [Product P17, [4-(1-Aminoethyl)-2,6-difluorophenyl](1-hydroxyisoquinolin-5-yl)methanone hydrochloride]	4.2	14	-72.8	-56.6
Cc1c[nH]c(=O)c2cccc(C(=O)c3c(F)cc([C@@H](C)N)cc3F)c12 [Product P50, 5-{4-[(1R)-1-Aminoethyl]-2,6-difluorobenzoyl}-4-methylisoquinolin-1(2H)-one hydrochloride]	5.4	100	-58	-16.8
NC(CC1CCCCC1)c1cc(F)c(C(=O)c2cccc3c(=O)[nH]ccc23)c(F)c1 (stereo not drawn) [Product P129, 5-[4-(1-Amino-2-cyclohexylethyl)-2,6-difluorobenzoyl]isoquinolin-1(2H)-one hydrochloride]	20.5	2000	-30.2	-18.4
C[C@@H](N)c1ccc(C(=O)c2cccc3c(=O)[nH]ccc23)c2c1CCCO2 [Product P45, 5-({5-[(1R)-1-Aminoethyl]-3,4-dihydro-2H-chromen-8-yl}carbonyl)isoquinolin-1(2H)-one hydrochloride]	5	100	-60.6	-24
C[C@H](N)c1cc(F)c(C(O)c2cccc3cnccc23)c(F)c1 (single isomer, unassigned; enantiomer 1) [Product P21]	–	1000	–	–
NCC1CCOc2c(C(=O)c3cccc4c(=O)[nH]ccc34)cccc21 (stereo not drawn) [Product P139, 5-{[4-(Aminomethyl)-3,4-dihydro-2H-chromen-8-yl]carbonyl}isoquinolin-1(2H)-one hydrochloride]	87.5	2000	–	–
N[C@@H]1CCc2cc(F)c(C(=O)c3cccc4c(=O)[nH]ccc34)c(F)c21 [Product P59, 5-{[(3R)-3-Amino-4,6-difluoro-2,3-dihydro-1H-inden-5-yl]carbonyl}isoquinolin-1(2H)-one hydrochloride]	1.95	550	-40.3	–
Cc1cc([C@@H](C)N)ccc1C(=O)c1cccc2c(=O)[nH]ccc12 [Product P47, 5-{4-[(1R)-1-Aminoethyl]-2-methylbenzoyl}isoquinolin-1(2H)-one hydrochloride]	6.78	40	-62.7	-26.4
C[C@@H](N)c1ccc(C(=O)c2cccc3c(=O)[nH]ccc23)c2c1OCCO2 [Product P61, 5-({8-[(1R)-1-Aminoethyl]-2,3-dihydro-1,4-benzodioxin-5-yl}carbonyl)isoquinolin-1(2H)-one hydrochloride]	5.35	170	-59	–
CC(C)(N)c1cc(F)c(C(=O)c2cccc3cnccc23)c(F)c1 [Product P24, [4-(2-Aminopropan-2-yl)-2,6-difluorophenyl](isoquinolin-5-yl)methanone dihydrochloride]	23	10	-68.2	-52.5
